Reference: patent publication US20200216441A1, “PESTICIDALLY ACTIVE HETEROCYCLIC DERIVATIVES WITH SULFUR CONTAINING SUBSTITUENTS” (SYNGENTA PARTICIPATIONS AG, priority 2017, published 2020)

How the values were obtained:
[1] = test system: Euschistus heros (Neotropical Brown Stink Bug); assay: whole plant or invertebrate; type: in vivo; conditions: 120 h, application rate of 200 ppm, N2 nymphs on sprayed soybean leaves, 5 days after infestation, read-out: effect in at least one of the two categories (mortality or growth inhibition)
[2] = test system: Myzus persicae (Green Peach Aphid); assay: whole plant or invertebrate; type: in vivo; conditions: 144 h, test rate of 24 ppm, systemic, roots of infested pea seedlings in test solution, 6 days
[3] = test system: Plutella xylostella (Diamond Back Moth); assay: whole plant or invertebrate; type: in vivo; conditions: 120 h, application rate of 200 ppm, L2 larvae on treated artificial diet, 5 days after infestation, read-out: effect in at least one of the two categories (mortality or growth inhibition)
[4] = test system: Spodoptera littoralis (Egyptian Cotton Leaf Worm); assay: Spodoptera littoralis (Egyptian Cotton Leaf Worm), uptake by lettuce roots from agar; type: in vivo; conditions: 144 h, test rate of 12.5 ppm, compound in agar absorbed by lettuce roots, 6 days after infestation, read-out: effect in at least one of the three categories (mortality, anti-feeding, or growth inhibition)
Source text: Example B10: Spodoptera littoralis (Egyptian Cotton Leaf Worm)
Test compounds were applied by pipette from 10′000 ppm DMSO stock solutions into 24-well plates and mixed with agar. Lettuce seeds were placed onto the agar and the multi well plate was closed by another plate which contained also agar. After 7 days the compound was absorbed by the roots and the lettuce grew into the lid plate. The lettuce leaves were then cut off into the lid plate. Spodoptera eggs were pipetted through a plastic stencil onto a humid gel blotting paper and the lid plate was closed with it.

[5] = test system: Myzus persicae (Green Peach Aphid); assay: whole plant or invertebrate; conditions: foliar, 144 h
[6] = test system: Spodoptera littoralis (Egyptian Cotton Leaf Worm); assay: whole plant or invertebrate; conditions: in Gossypium barbadense, foliar, 72 h, read-out: control (mortality, anti-feeding effect, growth inhibition)
[7] = test system: Diabrotica Balteata (Corn Root Worm); assay: Diabrotica balteata (Corn Root Worm); conditions: in Zea mays, 96 h, read-out: effect in at least one of the two categories (mortality or growth inhibition)
[8] = test system: Bemisia tabaci (Cotton White Fly); conditions: in Gossypium hirsutum, foliar, 144 h
[9] = test system: Tetranychus urticae (Two-Spotted Spider Mite); conditions: foliar, 192 h
[10] = test system: Frankliniella occidentalis (Western Flower Thrips); conditions: foliar, 168 h
[11] = test system: Myzus persicae (Green Peach Aphid); assay: Myzus persicae (Green Peach Aphid). Intrinsic Activity; conditions: 120 h

| Structure (SMILES) | percent effect (mortality or growth inhibition) at 200 ppm [1] | mortality at 24 ppm [2] | percent effect (mortality or growth inhibition) at 200 ppm [3] | percent effect (mortality, anti-feeding or growth inhibition) at 12.5 ppm [4] | mortality at 200 ppm [5] | mortality at 200 ppm [6] | mortality at 200 ppm [7] | mortality at 200 ppm [8] | mortality at 200 ppm [9] | mortality at 200 ppm [10] | mortality at 12 ppm [11] | melting point |
| --- | --- | --- | --- | --- | --- | --- | --- | --- | --- | --- | --- | --- |
| CCS(=O)(=O)c1cc(OC(C)(C)C#N)cnc1-c1nc2cc(C(F)(F)F)ncc2n1C [Compound P18, 2-[[5-ethylsulfonyl-6-[3-methyl-6-(trifluoromethyl)imidazo[4,5-c]pyridin-2-yl]-3-pyridyl]oxy]-2-methyl-propanenitrile] | ≥ 80% | ≥ 80% | ≥ 80% | ≥ 80% | ≥ 80% | ≥ 80% | ≥ 80% | ≥ 80% | ≥ 80% | ≥ 80% |  |  |
| CCSc1cc(OC(C)(C)C#N)cnc1-c1nc2cc(C(F)(F)F)ncc2n1C [Compound P19, 2-[[5-ethylsulfanyl-6-[3-methyl-6-(trifluoromethyl)imidazo[4,5-c]pyridin-2-yl]-3-pyridyl]oxy]-2-methyl-propanenitrile] | ≥ 80% |  | ≥ 80% |  | ≥ 80% | ≥ 80% | ≥ 80% | ≥ 80% | ≥ 80% |  | ≥ 80% |  |
| CCS(=O)(=O)c1cc(OC(C)C)cnc1-c1nc2cc([S+]([O-])C(F)(F)F)ncc2n1C (stereo not drawn) [Compound P60, 2-(3-ethylsulfonyl-5-isopropoxy-2-pyridyl)-3-methyl-6-(trifluoromethylsulfinyl)imidazo[4,5-c]pyridine] | ≥ 80% | ≥ 80% | ≥ 80% |  | ≥ 80% | ≥ 80% |  | ≥ 80% | ≥ 80% | ≥ 80% |  |  |
| CCS(=O)(=O)c1cc(OCC2CC2)cnc1-c1nc2cc(C(F)(F)F)ncc2n1C [Compound P24, 2-[5-(cyclopropylmethoxy)-3-ethylsulfonyl-2-pyridyl]-3-methyl-6-(trifluoromethyl)imidazo[4,5-c]pyridine] | ≥ 80% | ≥ 80% | ≥ 80% | ≥ 80% | ≥ 80% | ≥ 80% | ≥ 80% |  |  |  |  |  |
| CCS(=O)(=O)c1cc(OC(CF)CF)cnc1-c1nc2cc(C(F)(F)F)ncc2n1C [Compound P53, 2-[3-ethylsulfonyl-5-[2-fluoro-1-(fluoromethyl)ethoxy]-2-pyridyl]-3-methyl-6-(trifluoromethyl)imidazo[4,5-c]pyridine] | ≥ 80% | ≥ 80% | ≥ 80% |  | ≥ 80% | ≥ 80% | ≥ 80% | ≥ 80% | ≥ 80% | ≥ 80% |  |  |
| CCS(=O)(=O)c1cc(OCSC)cnc1-c1nc2cc(C(F)(F)F)ncc2n1C [Compound P10, 2-[3-ethylsulfonyl-5-(methylsulfanylmethoxy)-2-pyridyl]-3-methyl-6-(trifluoromethyl)imidazo[4,5-c]pyridine] | ≥ 80% | ≥ 80% |  |  | ≥ 80% | ≥ 80% | ≥ 80% | ≥ 80% |  | ≥ 80% |  |  |
| CCS(=O)(=O)c1cc(OC(F)(F)Br)cnc1-c1nc2cc(C(F)(F)F)ncc2n1C [Compound P99, 2-[5-[bromo(difluoro)methoxy]-3-ethylsulfonyl-2-pyridyl]-3-methyl-6-(trifluoromethyl)imidazo[4,5-c]pyridine] | ≥ 80% |  | ≥ 80% | ≥ 80% |  | ≥ 80% | ≥ 80% |  | ≥ 80% |  |  |  |
| CCS(=O)(=O)c1cc(OCC(C)(F)F)cnc1-c1nc2cc(C(F)(F)F)ncc2n1C [Compound P41, 2-[5-(2,2-difluoropropoxy)-3-ethylsulfonyl-2-pyridyl]-3-methyl-6-(trifluoromethyl)imidazo[4,5-c]pyridine] | ≥ 80% | ≥ 80% | ≥ 80% |  | ≥ 80% | ≥ 80% | ≥ 80% | ≥ 80% |  | ≥ 80% |  |  |
| CCS(=O)(=O)c1cc(OC(C)(F)F)ccc1-c1nc2cc(C(F)(F)F)ncc2n1C |  |  |  |  |  |  |  |  |  |  |  | 142 to 144 °C |
| CCS(=O)(=O)c1cc(OC(C(=O)OC)S(C)(=O)=O)cnc1-c1nc2cc(C(F)(F)F)ncc2n1C (stereo not drawn) |  |  |  |  |  |  |  |  |  |  |  | 122 to 124 °C |
| CCS(=O)(=O)c1cc(OC(C)(C)C#N)ccc1-c1nc2cc(C(F)(F)F)ncc2n1C [Compound P103, 2-[3-ethylsulfonyl-4-[3-methyl-6-(trifluoromethyl)imidazo[4,5-c]pyridin-2-yl]phenoxy]-2-methyl-propanenitrile] | ≥ 80% | ≥ 80% | ≥ 80% |  | ≥ 80% | ≥ 80% | ≥ 80% | ≥ 80% | ≥ 80% | ≥ 80% |  |  |
| CCS(=O)(=O)c1cc(OC(C#N)SC)cnc1-c1nc2cc(C(F)(F)F)ncc2n1C (stereo not drawn) |  |  |  |  |  |  |  |  |  |  |  | 204 to 206 °C |
| CCS(=O)(=O)c1cc(OC(F)(F)CBr)ccc1-c1nc2cc(C(F)(F)F)ncc2n1C |  |  |  |  |  |  |  |  |  |  |  | 137 to 139 °C |
| CCS(=O)(=O)c1cc(OC(C)(F)F)cnc1-c1nc2cc(C(F)(F)F)ncc2n1C [Compound P78, 2-[5-(1,1-difluoroethoxy)-3-ethylsulfonyl-2-pyridyl]-3-methyl-6-(trifluoromethyl)imidazo[4,5-c]pyridine] | ≥ 80% | ≥ 80% | ≥ 80% |  | ≥ 80% | ≥ 80% | ≥ 80% | ≥ 80% |  | ≥ 80% |  |  |
| CCS(=O)(=O)c1cc(OC(C)C)cnc1-c1nc2cc(C(F)(F)F)ncc2n1C [Compound P28, 2-(3-ethylsulfonyl-5-isopropoxy-2-pyridyl)-3-methyl-6-(trifluoromethyl)imidazo[4,5-c]pyridine] | ≥ 80% | ≥ 80% | ≥ 80% | ≥ 80% | ≥ 80% | ≥ 80% | ≥ 80% | ≥ 80% |  |  |  |  |
| CCS(=O)(=O)c1cc(ON=C(C)C)cnc1-c1nc2cc(C(F)(F)F)ncc2n1C [Compound P97, N-[[5-ethylsulfonyl-6-[3-methyl-6-(trifluoromethyl)imidazo[4,5-c]pyridin-2-yl]-3-pyridyl]oxy]propan-2-imine] | ≥ 80% |  | ≥ 80% | ≥ 80% | ≥ 80% | ≥ 80% | ≥ 80% | ≥ 80% |  |  |  |  |
